Entries after “also recorded” stand apart in the source; their conditions may differ.
How the values were obtained:
SMC1β = SMC1β proteolysis/degradation assay in testis nuclear extracts (immunoblot); type: biochemical, mouse; settings: for effect of added SMC1β protein fragment on degradation of SMC1β: increasing amounts of fragment added to testis nuclear extract, anti-SMC1β immunoblot
From the text: It is very likely, that phosphorylation and/or protein degradation play an important role in regulating the removal of SMC1β and its complex from meiotic chromosomes. Understanding this mechanism would fill a significant gap in our knowledge of the meiotic process and of regulation of SMC1β function. It is unlikely that association and dissociation of cohesins are regulated exclusively through Rec8, because Rec8 behaves differently from SMC1β and SMC3 (Eijpe et al., J. Cell Biol. 160:657-670,2003; and see below). As a first approach to address this question, a series of proteolysis assays were undertaken. In these assays, nuclear extracts from mouse testis were incubated under various conditions and investigated the intactness of SMC1β by immunoblotting.
To begin testing the effect of phosphorylation, nuclear extracts were prepared in the presence or absence of general phosphatase inhibitors (1 mM o-vanadate, 10 mM β-glycerophosphate). If a phosphorylated SMC1β is more prone to degradation, inhibited dephosphorylation should stimulate degradation. […] The effect of phosphatase inhibition can either be direct—on SMC1β phosphorylation—or indirect, i.e. on maintaining an activated state of the protease or of a regulator of the protease. The mechanism of phosphatase inhibition and the identification of enzymes that are involved are currently being examined.
Speculating that the 120-kDa product seen in degradation assays is a true intermediate of SMC1β degradation, two fragments of SMC1β that span either one of the two putative regions of cleavage, positioned at about 30 kDa distance from each of the termini, were subcloned and expressed in E. coli. Thus, an N-terminal or a C-terminal polypeptide of 33 or 35 kDa, respectively, was expressed and purified. While the N-terminal fragment was purified to near homogeneity (100 mM imidazole fraction), there were one major and a few minor contaminants in the C-terminal fragment preparation. The putative region of cleavage was identified at the center of these polypeptides (N-terminal fragment: amino acids 174 to 420; C-terminal fragment: amino acids 820 to 1073). These proteins were used in cleavage inhibition assays. […] Thus, there is early evidence for a cleavage site within the N-terminal region between amino acids 174 and 420, and the precise cleavage site is being determined.
In attempts to identify the protease cleavage site within SMC1β, N-terminal and C-terminal protein fragments of SMC1β were purified in increasing concentrations of imidazole in elution buffer and run on silver-stained SDS polyacrylamide gels. To assay degradation, increasing amounts of N- or C-terminal protein fragments were then added to a reaction containing extract incubated with and without competitor. Reactions were then separated eletrophoretically on SDS polyacrylamide gels, immunoblotted, and probed with anti-SMC1β antibody. […] Cleavage of the N-terminal fragment itself is currently being investigated.

Rec8 or STAG3 = assay: Degradation of other cohesin subunits in testis nuclear extracts; type: biochemical, mouse; settings: ATP added to testis nuclear extract
human PEP = target: T1, human PEP (Homo sapiens, UniProt P48147); settings: inhibitor from Calbiochem Inc.; cited from earlier work
T1 sequence (P48147 1-710): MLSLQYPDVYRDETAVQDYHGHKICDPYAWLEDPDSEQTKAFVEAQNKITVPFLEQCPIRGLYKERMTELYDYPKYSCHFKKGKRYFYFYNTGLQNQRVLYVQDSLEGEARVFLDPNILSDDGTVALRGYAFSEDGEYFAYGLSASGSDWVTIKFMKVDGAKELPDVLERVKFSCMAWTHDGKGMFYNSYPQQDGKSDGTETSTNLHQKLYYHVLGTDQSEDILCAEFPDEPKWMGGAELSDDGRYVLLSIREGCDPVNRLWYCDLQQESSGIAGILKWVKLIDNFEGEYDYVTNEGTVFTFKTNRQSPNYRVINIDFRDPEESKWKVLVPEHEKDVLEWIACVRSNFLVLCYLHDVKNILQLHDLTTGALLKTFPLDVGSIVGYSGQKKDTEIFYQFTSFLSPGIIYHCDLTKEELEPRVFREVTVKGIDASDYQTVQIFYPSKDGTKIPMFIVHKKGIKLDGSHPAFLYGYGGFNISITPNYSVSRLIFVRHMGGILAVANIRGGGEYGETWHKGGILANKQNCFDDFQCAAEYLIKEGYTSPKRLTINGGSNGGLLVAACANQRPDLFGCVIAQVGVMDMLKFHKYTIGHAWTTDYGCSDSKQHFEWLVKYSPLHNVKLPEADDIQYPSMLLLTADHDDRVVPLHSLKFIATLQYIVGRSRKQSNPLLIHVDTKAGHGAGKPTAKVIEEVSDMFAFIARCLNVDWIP

[1] = test system: type A spermatogonial cells; settings: cited from earlier work
spermatocytes = assay: Okadaic acid-induced premature transition of cultured spermatocytes into metaphase I; type: cell-based; settings: wildtype mouse spermatocytes; 5 μM okadaic acid for 5 h
From the text: As a result, 20 bivalents, each with two pairs of unseparated, closely apposed sister kinetochores and at least one chiasma became visible. […] Co-staining for γ-H2AX, which decreases from zygotene to pachytene, allowed for determination of the stage at which the cells were exposed to OA. Cells with 80 centromere signals were of pachytene origin (no γ-H2AX), and cells with 40 centromere signals were of zygotene origin (patchy γ-H2AX).
Most antibodies used have been described (Eijpe et al., supra, 2000; Revenkova et al., supra, 2001; and 14. Eijpe et al., J. Cell Biol. 3,.657-670, 2003). Mouse anti-MLH1 was from BDPharMingen, rabbit-antiMLH1 from Calbiochem, and rabbit anti-SMC1α from Bethyl Labs Inc. Mouse anti-γH2AX was donated by A. Pastink, rabbit anti-SMC3 by J. -M. Peters, rabbit anti-RAP1 by T. de Lange, mouse anti-ATR by P. de Boer, mouse anti-MLH3 by P. Cohen, and goat anti-rat SCP3 by T. Ashley. Paraffin and frozen sections of mouse testis, and dry-down preparations of testis cell suspensions were prepared, incubated for immunocytochemistry and analyzed as described (Eijpe et al., supra, 2000;, Revenkova et al., supra, 2001; Eijpe et al., J. Cell Biol. 3, 657-670, 2003; Peters et al., Chromosome Res. 5:66-68, 1997). Mice were labeled in vivo with BrdU, and detected -the incorporated BrdU in sections and dry-down preparations as described before (Eijpe et al, supra, 2003). […]

Nc1ncnc2c1ncn2[C@@H]1O[C@H](COP(=O)(O)OP(=O)(O)OP(=O)(O)O)[C@@H](O)[C@H]1O [ATP]
effect of ATP on SMC1β degradation (SMC1β; ATP added to testis nuclear extract): increased the efficiency of the reaction; also recorded: stimulates SMC1β degradation
effect of ATP on degradation of Rec8 or STAG3 (Rec8 or STAG3): not enhanced by addition of ATP, but rather inhibited

CC(C)(C)OC(=O)NC(CCC(=O)NOC(=O)c1ccccc1)C(=O)N1CCCC1 (stereo not shown) [Boc-Glu(NHO-Bz)-Pyr]
Ki (human PEP): 30 nM

stem cell factor: stem cell factor (SCF; kit ligand) added to induce meiosis in spermatogonial cultures
cells that are 4N ([1]; after 1 week of induction): 40%
total cell population that is haploid ([1]; after 3 weeks of induction): 58%

C=C1[C@@H](O)[C@@H]2O[C@]3(CC[C@H](/C=C/[C@@H](C)[C@@H]4CC(C)=C[C@@]5(O[C@H](C[C@@](C)(O)C(=O)O)CC[C@H]5O)O4)O3)CC[C@H]2O[C@@H]1[C@@H](O)C[C@H](C)[C@H]1O[C@@]2(CCCCO2)CC[C@H]1C [OA, okadaic acid]
effect on chromosome condensation and cohesion (spermatocytes): caused premature chromosome condensation from mid-pachytene on, without affecting sister chromatid arm and centromere cohesion

B1: C-terminal protein: SMC1β C-terminal fragment, amino acids 820 to 1073, 35 kDa polypeptide expressed in E. coli (protein, UniProt Q8NDV3 820-1073, looked up, fragment)
chain: QLEYSRSHLKKKLNKINTLKETIQKGSEDIDHLKKAEENCLQTVNELMAKQQQLKDIRVTQNSSAEKVQTQIEEERKKFLAVDREVGKLQKEVVSIQTSLEQKRLEKHNLLLDCKVQDIEIILLSGSLDDIIEVEMGTEAESTQATIDIYEKEEAFEIDYSSLKEDLKALQSDQEIEAHLRLLLQQVASQEDILLKTAAPNLRALENLKTVRDKFQESTDAFEASRKEARLCRQEFEQVKKRRYDLFTQCFEHV
effect of added SMC1β protein fragment on degradation of SMC1β (SMC1β): degradation was not affected

B2: N-terminal protein: SMC1β N-terminal fragment, amino acids 174 to 420, 33 kDa polypeptide expressed in E. coli (protein, UniProt Q8NDV3 174-420, looked up, fragment)
chain: KLQKAEEDAQFNFNKKKNIAAERRQAKLEKEEAERYQSLLEELKMNKIQLQLFQLYHNEKKIHLLNTKLEHVNRDLSVKRESLSHHENIVKARKKEHGMLTRQLQQTEKELKSVETLLNQKRPQYIKAKENTSHHLKKLDVAKKSIKDSEKQCSKQEDDIKALETELADLDAAWRSFEKQIEEEILHKKRDIELEASQLDRYKELKEQVRKKVATMTQQLEKLQWEQKTDEERLAFEKRRHGEVQGN
effect of added SMC1β protein fragment on degradation of SMC1β (SMC1β): inhibited the degradation of SMC1β
effect of added SMC1β protein fragment on degradation of SMC1β (SMC1β; listed as N-terminal 33-kDa fragment): identified as an inhibitor to protease cleavage
effect of added SMC1β protein fragment on degradation of SMC1β (SMC1β; listed as N-terminal peptide of SMC1β): inhibited specifically

Source: patent publication US20070298026A1, “Methods for Identifying Treatment and Inducing Infertility Using Smc1-Beta” (MOUNT SINAI SCHOOL OF MEDICINE Office of Industrial Liaison, priority 2003, published 2007)
